Results taken from patent US10300155B2, “Alpha-synuclein ligands” (Washington University, priority 2015, dated 2019).
Values joined by “and” are separate entries in the source; they are usually repeats but may differ in a detail not shown here. Equal entries are not always repeated. Where two headings read alike, the source gives them in different places.

Molecular target: T1, α-synuclein fibrils (Homo sapiens, UniProt P37840)
T1 construct: made in house; host or cells: E. coli BL21(DE3)RIL
Assay: ThT competitive assay for α-synuclein fibrils (Table 1)
Format: binding
Details: for EC50: α-synuclein fibrils
Experimental: Upon binding to amyloid fibrils, a peak at approximately 440 nm becomes dominant with the fluorescent emission maximum shifted to 480 nm. This is accompanied by a strong enhancement of the fluorescence.
α-Synuclein recombinant protein was produced in E. coli. […] Freshly transformed BL21 colonies were inoculated into 2 L baffled flasks containing 250 mL sterilized TB (1.2% bactotryptone, 2.4% yeast extract, 0.4% glycerol, 0.17 M KH2PO4, 0.72 M K2HPO4) with 50 μg/ml ampicillin, and incubated overnight at 37° C. with shaking.
To determine the concentration of fibrils, the reaction mixture (100 μL) was centrifuged at 18,000×g for 10 minutes to separate fibrils from monomer. The α-synuclein monomer and other soluble proteins in the supernatant were removed, and the fibril pellet was resuspended in 100 μL solution of Tris-HCl (20 mM) and NaCl (100 mM). This fibril suspension was used in a bicinchoninic acid (BCA) protein assay along with a bovine serum albumin (BSA) standard curve to determine the concentration of fibrils in the 72 hour fibril reaction mixture.
To prepare the fibrils for performing binding assays, the fibril reaction mixture prepared above was centrifuged at 18,000×g for 10 minutes.
Once the ThT-α-synuclein saturation binding curve and dissociation constant (Kd) were determined the competitive assay for determining the binding affinity of various test compounds was conducted. […] The mixture was incubated at room temperature for 60 minutes on the shaking plate. The fluorescent intensity for each cell was measured by the fluorescence reader at λex and λem. The Ki value for each compound was calculated by the corresponding inhibition curve.
The Ki values were derived from the EC50 values using the Cheng-Prusoff equation: Ki=EC50/(1+[radioligand]/Kd). See FIGS. 17.1-31.2 for the inhibition curves for each compound in the ThioT competitive binding assay.

[1] = average, read-out: Ki (nM) α-syn (avg)
[2] = individual determinations, read-out: Ki (nM) α-syn
[3] = average, read-out: EC50 (nM) EC50 (avg)
[4] = individual determinations, read-out: EC50 (nM) EC50

Row | Structure (SMILES) | Ki [1] | Ki [2] | EC50 [3] | EC50 [4]
1 | COc1ccc(/C=C/c2cnccn2)cc1 [TZ-22-1-2] | 31.9 nM | 31.9 nM |  | 
2 | COc1ccc(C(=O)C2CCN(C(=O)COC(=O)c3ccc(C(C)(C)C)cc3)CC2)cc1 [TZ-20-11] | 5090 nM | 5090 nM |  | 
3 | COc1ccc2nc(/C=C/c3ccco3)ccc2c1 [TZ-36-52] | 316 nM | 316 nM | 827 nM | 827 nM
4 | Ic1ccc(/C=C/c2ccsc2)cc1 [TZ-34-64] | 115 nM | 115 nM | 300 nM | 300 nM
5 | COc1ccc(/C=C/c2ccc(-c3cccs3)s2)cc1 [TZ-34-40] | 450 nM | 500 nM and 400 nM | 1180 nM | 1310 nM and 1050 nM
6 | Fc1ccc(-c2ccc(-c3nc4cc(Br)ccc4o3)cc2C(F)(F)F)cn1 [TZ-31-108] | 1540 nM | 1540 nM | 4030 nM | 4030 nM
7 | COc1cc(/C=C/c2cnccn2)nc2ccccc12 [TZ-23-20] | 3030 nM | 3030 nM |  | 
8 | Ic1ccc(/C=C/c2ccoc2)cc1 [TZ-34-86] | 134 nM | 117 nM and 152 nM | 352 nM | 306 nM and 398 nM
9 | Brc1ccc(/C=C/c2ccsc2)cc1 [TZ-34-58] | 319 nM | 319 nM | 834 nM | 834 nM
10 | CN(C)c1ccc(/C=C/c2cnccn2)cc1 [TZ-22-35-1] | 698 nM | 698 nM |  | 
11 | COc1ccc(C(=O)C2CCN(C(=O)c3ccc(/C=C/c4ccncc4)cc3)CC2)cc1 [TZ-20-51] | 184 nM | 184 nM |  | 
12 | O=C(Nc1ccc(OCCF)cc1)c1ccc(/C=C/c2ccncc2)cc1 [TZ-23-88] | 32.1 nM | 24.3 nM and 40 nM | 83.8 nM | 63.5 nM and 104 nM
13 | COC(=O)c1ccc2oc(-c3ccc(-c4ccc(F)nc4)c(C(F)(F)F)c3)nc2c1 [TZ-31-125] | 1560 nM | 1560 nM | 4090 nM | 4090 nM
14 | CN(C)c1ccc(/C=C/CN2c3ccccc3Oc3ccccc32)cc1 [TZ-19-138] | 3090 nM | 3090 nM |  | 
15 | CNc1ccc(/C=C/c2ccncc2)cc1 [TZ-20-97] |  | 33.9 nM |  | 
